Blank lines part the entries; values can stand above or below the molecule they belong to.
Key:
[1] = Drug uptake in CD-IGS rat at 1 mg/kg, po administered for 3 days measured at 24 hrs post last dose; assay type: ADME, organism-based; settings: in vivo, read-out: Drug uptake
[2] = AUC in mouse at 10 mg/kg, po; assay type: ADME, organism-based; settings: in vivo
[3] = Drug uptake in CD-IGS rat at 1 mg/kg, po administered for 3 days measured at 6 hrs post last dose; assay type: ADME, organism-based; settings: in vivo, read-out: Drug uptake
[4] = AUC in 17-beta estradiol pellets supplemented nu/nu mouse xenografted with tamoxifen-resistant human MCF7 cells at 100 mg/kg/day, po administered for 4 weeks measured on day 28; assay type: ADME, organism-based; settings: in vivo
[5] = AUC in mouse at 100 mg/kg, po; assay type: ADME, organism-based; settings: in vivo
[6] = tested on: Mus musculus; experiment: AUC in mouse assessed as GW-7604 at 100 mg/kg, po; assay type: ADME, organism-based; settings: in vivo
[7] = Half life in phosphate buffer at pH 7.4 at 37 degC; assay type: physicochemical
[8] = Clearance in rat at 3 mg/kg, iv and 10 mg/kg, po; assay type: ADME, organism-based; settings: in vivo
[9] = Clearance in dog at 3 mg/kg, iv and 10 mg/kg, po; assay type: ADME, organism-based, Canis lupus familiaris; settings: in vivo
[10] = Clearance in cynomolgus monkey at 3 mg/kg, iv and 10 mg/kg, po; assay type: ADME, organism-based, Macaca fascicularis; settings: in vivo
[11] = Volume of distribution at steady state in mouse at 3 mg/kg, iv and 10 mg/kg, po; assay type: ADME, organism-based; settings: in vivo, read-out: Vdss
[12] = Volume of distribution at steady state in rat at 3 mg/kg, iv and 10 mg/kg, po; assay type: ADME, organism-based; settings: in vivo, read-out: Vdss
[13] = Volume of distribution at steady state in dog at 3 mg/kg, iv and 10 mg/kg, po; assay type: ADME, organism-based, Canis lupus familiaris; settings: in vivo, read-out: Vdss
[14] = Volume of distribution at steady state in cynomolgus monkey at 3 mg/kg, iv and 10 mg/kg, po; assay type: ADME, organism-based, Macaca fascicularis; settings: in vivo, read-out: Vdss
[15] = Half life in mouse at 3 mg/kg, iv; assay type: ADME, organism-based; settings: in vivo
[16] = Half life in rat at 3 mg/kg, iv; assay type: ADME, organism-based; settings: in vivo
[17] = Half life in dog at 3 mg/kg, iv; assay type: ADME, organism-based, Canis lupus familiaris; settings: in vivo
[18] = Half life in cynomolgus monkey at 3 mg/kg, iv; assay type: ADME, organism-based, Macaca fascicularis; settings: in vivo
[19] = Cmax in mouse at 10 mg/kg, po; assay type: ADME, organism-based; set-up: dose 10 mg/kg, route oral; settings: in vivo
[20] = Cmax in rat at 10 mg/kg, po; assay type: ADME, organism-based; set-up: dose 10 mg/kg, route oral; settings: in vivo
[21] = Cmax in dog at 10 mg/kg, po; assay type: ADME, organism-based, Canis lupus familiaris; set-up: dose 10 mg/kg, route oral; settings: in vivo
[22] = Cmax in cynomolgus monkey at 10 mg/kg, po; assay type: ADME, organism-based, Macaca fascicularis; set-up: dose 10 mg/kg, route oral; settings: in vivo
[23] = AUC in rat at 10 mg/kg, po; assay type: ADME, organism-based; settings: in vivo
[24] = AUC in 17-beta estradiol pellets supplemented nu/nu mouse xenografted with tamoxifen-resistant human MCF7 cells at 30 mg/kg/day, po administered for 4 weeks measured on day 28; assay type: ADME, organism-based; settings: in vivo
[25] = AUC in dog at 10 mg/kg, po; assay type: ADME, organism-based, Canis lupus familiaris; settings: in vivo
[26] = AUC in cynomolgus monkey at 10 mg/kg, po; assay type: ADME, organism-based, Macaca fascicularis; settings: in vivo
[27] = Oral bioavailability in rat at 10 mg/kg; assay type: ADME, organism-based; settings: in vivo
[28] = Oral bioavailability in dog at 10 mg/kg; assay type: ADME, organism-based, Canis lupus familiaris; settings: in vivo
[29] = Oral bioavailability in cynomolgus monkey at 10 mg/kg; assay type: ADME, organism-based, Macaca fascicularis; settings: in vivo
[30] = Drug metabolism in microsomes (unknown origin) assessed as formation of (2S,3S,4R,5R,6S)-6-((E)-3-(4-((E)-2-(2-chloro-4-fluorophenyl)-1-(1H-indazol-5-yl)but-1-enyl)phenyl)acryloyloxy)-3,4,5-trihydroxytetrahydro-2H-pyran-2-carboxylic acid; assay type: ADME, Microsome
[31] = in vivo; settings: mouse, iv, 3 mg/kg
[32] = Drug level in microsomes (unknown origin) treated with (E)-3-(4-((E)-2-(2-chloro-4-fluorophenyl)-1-(1H-indazol-5-yl)but-1-enyl)phenyl)acrylic acid; assay type: ADME, Microsome
[33] = AUC in 17-beta estradiol pellets supplemented nu/nu mouse xenografted with tamoxifen-resistant human MCF7 cells at 200 mg/kg, sc administered 3 times per week for 4 weeks measured on day 28; assay type: ADME, organism-based; settings: in vivo

concentration at 24 h [1]: 11 nM
AUC [2]: 11000 ng·h/mL
Compound: CC/C(=C(/c1ccc(/C=C/C(=O)O)cc1)c1ccc2[nH]ncc2c1)c1cccc(Cl)c1

concentration at 6 h [3]: 14 nM
AUC [2]: 4300 ng·h/mL
Compound: CC/C(=C(/c1ccc(/C=C/C(=O)O)cc1)c1ccc2[nH]ncc2c1)c1ccc(C#N)cc1C

concentration at 6 h [3]: 10 nM
AUC [2]: 2900 ng·h/mL
Compound: CC/C(=C(/c1ccc(/C=C/C(=O)O)cc1)c1ccc2[nH]ncc2c1)c1ccc(C#N)cc1Cl

concentration at 24 h [1]: 1.7 nM
AUC [2]: 7200 ng·h/mL
Compound: CC/C(=C(/c1ccc(/C=C/C(=O)O)cc1)c1ccc2[nH]ncc2c1)c1ccccc1C

concentration at 24 h [1]: 0.5 nM
AUC [2]: 110 ng·h/mL
Compound: CC/C(=C(/c1ccc(/C=C/C(=O)O)cc1)c1ccc2[nH]ncc2c1)c1ccncc1Cl

concentration at 24 h [1]: 5.2 nM
AUC [2]: 8800 ng·h/mL
clearance [8]: 14 mL/min/kg
clearance [9]: 1.6 mL/min/kg
clearance [10]: 7 mL/min/kg
Vd [11]: 1.2 L/kg
Vd [12]: 1.9 L/kg
Vd [13]: 0.2 L/kg
Vd [14]: 0.5 L/kg
half-life [15]: 4.2 h
half-life [16]: 3.9 h
half-life [17]: 11 h
half-life [18]: 13 h
Cmax [19]: 4400 ng/mL
Cmax [20]: 1800 ng/mL
Cmax [21]: 20000 ng/mL
Cmax [22]: 6100 ng/mL
AUC [23]: 5800 ng·h/mL
AUC at 672 h [4]: 45000 ng·h/mL
AUC at 672 h [24]: 21000 ng·h/mL
AUC [25]: 69000 ng·h/mL
AUC [26]: 10000 ng·h/mL
bioavailability [27]: 49%
bioavailability [28]: 61%
bioavailability [29]: 42%
Drug metabolism [30]: metabolite_detected
clearance [31]: 11 mL/min/kg
Compound: CC/C(=C(/c1ccc(/C=C/C(=O)O)cc1)c1ccc2[nH]ncc2c1)c1ccc(F)cc1Cl [BRILANESTRANT]

concentration at 24 h [1]: 3.7 nM
AUC [2]: 15000 ng·h/mL
Compound: CC/C(=C(/c1ccc(/C=C/C(=O)O)cc1)c1ccc2[nH]ncc2c1)c1ccccc1Cl

concentration at 24 h [1]: 7.6 nM
AUC [2]: 81 ng·h/mL
Compound: CC/C(=C(/c1ccc(/C=C/C(=O)O)cc1)c1ccc2[nH]ncc2c1)c1ccncc1C

Second part, the molecule before the results:

Compound: CC/C(=C(/c1ccc(/C=C/C(=O)O)cc1)c1ccc2[nH]ccc2c1)c1ccccc1
AUC [2]: 9400 ng·h/mL

Compound: COc1ccc(-c2sc3cc(O)ccc3c2Oc2ccc(OCCN3CCCCC3)cc2)cc1 [ARZOXIFENE]
AUC at 672 h [4]: 50000 ng·h/mL

Compound: CC/C(=C(/c1ccc(/C=C/C(=O)O)cc1)c1ccc2[nH]c(=O)oc2c1)c1ccccc1
concentration at 24 h [1]: 0.2 nM
AUC [2]: 3000 ng·h/mL

Compound: Cc1c(-c2ccc(O)cc2)n(Cc2ccc(OCCN3CCCCC3)cc2)c2ccc(O)cc12 [PIPENDOXIFENE]
AUC at 672 h [4]: 7000 ng·h/mL

Compound: CC/C(=C(\c1ccccc1)c1ccc(/C=C/C(=O)O)cc1)c1ccccc1
AUC [5]: 137000 ng·h/mL

Compound: CC/C(=C(\c1ccc(O)cc1)c1ccc(/C=C/C(=O)O)cc1)c1ccccc1
AUC [6]: 13000 ng·h/mL

Compound: CC/C(=C(/c1ccc(/C=C/C(=O)O)cc1)c1ccc2[nH]ncc2c1)c1cscc1C
concentration at 24 h [1]: 10 nM
AUC [2]: 3800 ng·h/mL

Compound: O=C(Cc1ccccc1Nc1c(Cl)cccc1Cl)O[C@@H]1O[C@H](C(=O)O)[C@@H](O)[C@H](O)[C@H]1O
half-life [7]: 0.9 h

Compound: CC/C(=C(/c1ccc(/C=C/C(=O)O)cc1)c1ccc2[nH]nnc2c1)c1ccccc1
AUC [2]: 2300 ng·h/mL

Compound: CC/C(=C(/c1ccc(/C=C/C(=O)O[C@@H]2O[C@H](C(=O)O)[C@@H](O)[C@H](O)[C@H]2O)cc1)c1ccc2[nH]ncc2c1)c1ccc(F)cc1Cl
Drug metabolism [32]: metabolite_detected
half-life [7]: 8.1 h

Compound: CC/C(=C(/c1ccc(/C=C/C(=O)O)cc1)c1ccc2[nH]ncc2c1)c1ccccc1
AUC [5]: 240000 ng·h/mL
concentration at 24 h [1]: 3.8 nM
AUC [2]: 5800 ng·h/mL

Compound: CC/C(=C(/c1ccc(/C=C/C(=O)O)cc1)c1ccc2[nH]ncc2c1)c1ccccc1C#N
AUC [2]: 200 ng·h/mL

Compound: C[C@]12CC[C@@H]3c4ccc(O)cc4C[C@@H](CCCCCCCCC[S+]([O-])CCCC(F)(F)C(F)(F)F)[C@H]3[C@@H]1CC[C@@H]2O (stereo partly specified) [FULVESTRANT]
AUC at 672 h [33]: 11000 ng·h/mL

Compound: CC/C(=C(/c1ccc(/C=C/C(=O)O)cc1)c1cccc2[nH]ncc12)c1ccccc1
concentration at 24 h [1]: 0.1 nM
AUC [2]: 2800 ng·h/mL

From ChEMBL document CHEMBL3580562 (J Med Chem, 2015)
